Molecular target: T1, glucocorticoid receptor (Homo sapiens, UniProt P04150)
T1 construct: expressed in transfected cells
T1 sequence (P04150 524-758 limits assumed): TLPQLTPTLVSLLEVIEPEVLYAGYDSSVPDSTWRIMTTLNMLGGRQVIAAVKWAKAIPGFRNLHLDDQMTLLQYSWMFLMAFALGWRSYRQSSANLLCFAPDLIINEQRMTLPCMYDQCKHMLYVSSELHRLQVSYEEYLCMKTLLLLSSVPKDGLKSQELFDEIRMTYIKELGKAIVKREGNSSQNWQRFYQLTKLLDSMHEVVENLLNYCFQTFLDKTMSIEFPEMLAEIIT
Assay: Agonistic mode of action on the glucocorticoid receptor (CHO-Gal4/GR luciferase reporter cell line)
Type: cell-based
Details: range class observed in the agonistic assay or the antagonistic assay (CHO-Gal4/GR reporter cells); table does not say which mode applies per example
Outline: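 CHO cells stably carrying GAL4 DBD–GR ligand-binding-domain fusion and GAL4-UAS firefly luciferase reporter, 5000 cells/well grown 24 h, then compounds added in Opti-MEM at 8 half-log concentrations from 10 μM to 0.003 μM (0.5% DMSO), quadruplicates. Agonist-induced luminescence read on FLIPR Tetra; EC50 calculated.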

Which IC50 or EC50 (agonist or antagonist mode not specified) does the source give for `Cc1nnc2n1-c1c(cc(OC(F)F)c(-c3cc(F)cc4c3ccn4S(C)(=O)=O)c1F)NC2(C)C` [Example 268, 7-(Difluoro-methoxy)-9-fluoro-8-(6-fluoro-1-methylsulfonyl-1H-indol-4-yl)-1,4,4-trimethyl-5H-[1,2,4]triazolo[4,3-a]quinoxaline] here?
The IC50 or EC50 (agonist or antagonist mode not specified) was 1000 to 15000 nM.

`Cc1nnc2n1-c1c(cc(F)c(-c3cc(C(F)(F)F)cc4[nH]ccc34)c1F)NC2(C)C` [Example 207, 7,9-Difluoro-1,4,4-trimethyl-8-[6-(trifluoromethyl)-1H-indol-4-yl]-5H-[1,2,4]triazolo[4,3-a]quinoxaline] was tested. Which IC50 or EC50 (agonist or antagonist mode not specified) did it give?
The IC50 or EC50 (agonist or antagonist mode not specified) was 100 to 1000 nM.

Which IC50 or EC50 (agonist or antagonist mode not specified) does the source give for `COc1c(-c2cc(C)cc3c2ccn3S(C)(=O)=O)c(F)cc2c1-n1c(C)nnc1C(C)(C)N2` [Example 477, 7-Fluoro-9-methoxy-1,4,4-trimethyl-8-(6-methyl-1-methylsulfonyl-1H-indol-4-yl)-5H-[1,2,4]triazolo[4,3-a]quinoxaline] here?
The IC50 or EC50 (agonist or antagonist mode not specified) was 100 to 1000 nM.

Which IC50 or EC50 (agonist or antagonist mode not specified) does the source give for `Cc1nnc2n1-c1c(cc(F)c(-c3cc(Cl)cc4[nH]ccc34)c1F)NC2(C)C` [Example 511, 8-(6-Chloro-1H-indol-4-yl)-7,9-difluoro-l,4,4-trimethyl-5H-[1,2,4]triazolo[4,3-a]quinoxaline] here?
Its IC50 or EC50 (agonist or antagonist mode not specified) is < 100 nM.

`Cc1c[nH]c2c(-c3c(C(F)F)cc4c(c3F)-n3c(C)nnc3C(C)(C)N4)cccc12` [Example 306, 7-(Difluoro-methyl)-9-fluoro-1,4,4-trimethyl-8-(3-methyl-1H-indol-7-yl)-5H-[1,2,4]triazolo[4,3-a]quinoxaline] was tested. Which IC50 or EC50 (agonist or antagonist mode not specified) did it give?
Its IC50 or EC50 (agonist or antagonist mode not specified) is 100 to 1000 nM.

Which IC50 or EC50 (agonist or antagonist mode not specified) does the source give for `COCCn1ccc2c(-c3c(C(F)F)cc4c(c3F)-n3c(C)nnc3C(C)(C)N4)cc(F)cc21` [Example 396, 7-(Difluoro-methyl)-9-fluoro-8-[6-fluoro-1-(2-methoxy-ethyl)-1H-indol-4-yl]-1,4,4-trimethyl-5H-[1,2,4]triazolo[4,3-a]quinoxaline] here?
The IC50 or EC50 (agonist or antagonist mode not specified) was 1000 to 15000 nM.

How did the IC50 or EC50 (agonist or antagonist mode not specified) turn out when `Cc1c(-c2cc(F)cc3c(C)c[nH]c23)c(OC(F)(F)F)cc2c1-n1c(C)nnc1C(C)(C)N2` [Example 406, 8-(5-Fluoro-3-methyl-1H-indol-7-yl)-1,4,4,9-tetramethyl-7-(trifluoromethyloxy)-5H-[1,2,4]triazolo[4,3-a]quinoxaline] was run?
The IC50 or EC50 (agonist or antagonist mode not specified) was 100 to 1000 nM.

Which IC50 or EC50 (agonist or antagonist mode not specified) does the source give for `COCCn1ccc2c(-c3c(OC)cc4c(c3C)-n3c(C)nnc3C(C)(C)N4)cccc21` [Example 344, 7-Methoxy-8-[1-(2-methoxy-ethyl)-1H-indol-4-yl]-1,4,4,9-tetramethyl-5H-[1,2,4]triazolo[4,3-a] quinoxaline] here?
The IC50 or EC50 (agonist or antagonist mode not specified) was 1000 to 15000 nM.

With `Cc1c(-c2ccc(C#N)c3[nH]ccc23)c(F)cc2c1-n1c(C)nnc1C(C)(C)N2` [Example 534, 4-(7-Fluoro-1,4,4,9-tetramethyl-5H-[1,2,4]triazolo[4,3-a]quinoxalin-8-yl)-1H-indole-7-carbonitrile] as the molecule, how does the IC50 or EC50 (agonist or antagonist mode not specified) read?
Its IC50 or EC50 (agonist or antagonist mode not specified) is 100 to 1000 nM.

`Cc1nnc2n1-c1c(cc(F)c(-c3cccc4c3ccn4S(=O)(=O)C(C)C)c1F)NC2(C)C` [Example 200, 7,9-Difluoro-8-[1-(isopropylsulfonyl)-1H-indol-4-yl]-1,4,4-trimethyl-5H-[1,2,4]triazolo[4,3-a]quinoxaline] was tested. Which IC50 or EC50 (agonist or antagonist mode not specified) did it give?
Its IC50 or EC50 (agonist or antagonist mode not specified) is 1000 to 15000 nM.

`Cc1nnc2n1-c1c(cc(F)c(-c3ccc(Cl)c4[nH]ccc34)c1C(F)(F)F)NC2(C)C` [Example 530, 8-(7-Chloro-1H-indol-4-yl)-7-fluoro-1,4,4-trimethyl-9-(trifluoromethyl)-5H-[1,2,4] triazolo[4,3-a]quinoxaline] was tested. Which IC50 or EC50 (agonist or antagonist mode not specified) did it give?
Its IC50 or EC50 (agonist or antagonist mode not specified) is 100 to 1000 nM.

With `Cc1c(-c2cc(F)cc3c(C)c[nH]c23)c(OC(F)(F)F)cc2c1-n1c(C)nnc1C(C)(C)N2` [Example 458, 8-(5-Fluoro-3-methyl-1H-indol-7-yl)-1,4,4,9-tetramethyl-7-(trifluoromethyloxy)-5H-[1,2,4]triazolo[4,3-a]quinoxaline] as the molecule, how does the IC50 or EC50 (agonist or antagonist mode not specified) read?
Its IC50 or EC50 (agonist or antagonist mode not specified) is 100 to 1000 nM.

Which IC50 or EC50 (agonist or antagonist mode not specified) does the source give for `Cc1c(-c2cc(F)cc3c2ccn3S(C)(=O)=O)c(Cl)cc2c1-n1c(C)nnc1C(C)(C)N2` [Example 333, 7-Chloro-8-(6-fluoro-1-methylsulfonyl-1H-indol-4-yl)-1,4,4,9-tetramethyl-5H-[1,2,4] triazolo[4,3-a]quinoxaline] here?
The IC50 or EC50 (agonist or antagonist mode not specified) was < 100 nM.

For `Cc1nnc2n1-c1c(cc(F)c(-c3cccc4c3cnn4S(=O)(=O)CC3CC3)c1F)NC2(C)C` [Example 239, 8-[1-(Cyclopropyl-methylsulfonyl)-1H-indazol-4-yl]-7,9-difluoro-1,4,4-trimethyl-5H-[1,2,4]triazolo[4,3-a]quinoxaline], which IC50 or EC50 (agonist or antagonist mode not specified) is on record?
The IC50 or EC50 (agonist or antagonist mode not specified) was 100 to 1000 nM.

`COc1c(-c2cc(F)cc3c2ccn3CCO)c(F)cc2c1-n1c(C)nnc1C(C)(C)N2` [Example 380, 2-[6-Fluoro-4-(7-fluoro-9-methoxy-1,4,4-trimethyl-5H-[1,2,4]triazolo [4,3-a]quinoxalin-8-yl)-1H-indol-1-yl]-ethanol] was tested. Which IC50 or EC50 (agonist or antagonist mode not specified) did it give?
The IC50 or EC50 (agonist or antagonist mode not specified) was 1000 to 15000 nM.

Which IC50 or EC50 (agonist or antagonist mode not specified) does the source give for `Cc1nnc2n1-c1c(cc(F)c(-c3cccc4c3ccn4CCO)c1C(F)(F)F)NC2(C)C` [Example 456, 2-[4-[7-Fluoro-1,4,4-trimethyl-9-(trifluoromethyl)-5H-[1,2,4]triazolo[4,3-a]quinoxalin-8-yl]-1H-indol-1-yl]-ethanol] here?
The IC50 or EC50 (agonist or antagonist mode not specified) was 100 to 1000 nM.

Which IC50 or EC50 (agonist or antagonist mode not specified) does the source give for `Cc1nnc2n1-c1c(ccc(-c3cc(F)cc4c3ccn4S(C)(=O)=O)c1C(F)F)NC2(C)C` [Example 526, 9-(Difluoro-methyl)-8-(6-fluoro-1-methylsulfonyl-1H-indol-4-yl)-1,4,4-trimethyl-5H-[1,2,4] triazolo[4,3-a]quinoxaline] here?
Its IC50 or EC50 (agonist or antagonist mode not specified) is 100 to 1000 nM.

How did the IC50 or EC50 (agonist or antagonist mode not specified) turn out when `Cc1nnc2n1-c1c(cc(F)c(-c3cccc4c3ccn4C(=O)CN(C)C)c1F)NC2(C)C` [Example 223, 1-[4-(7,9-Difluoro-1,4,4-trimethyl-5H-[1,2,4]triazolo[4,3-a]quinoxalin-8-yl)-1H-indol-1-yl]-2-dimethylamino-ethanone] was run?
Its IC50 or EC50 (agonist or antagonist mode not specified) is < 100 nM.

`Cc1nnc2n1-c1c(cc(OC(F)F)c(-c3cccc4c3cnn4C)c1F)NC2(C)C` [Example 273, 7-(Difluoro-methoxy)-9-fluoro-1,4,4-trimethyl-8-(1-methyl-1H-indazol-4-yl)-5H-[1,2,4]triazolo[4,3-a]quinoxaline] was tested. Which IC50 or EC50 (agonist or antagonist mode not specified) did it give?
Its IC50 or EC50 (agonist or antagonist mode not specified) is 1000 to 15000 nM.

For `Cc1nnc2n1-c1c(cc(F)c(-c3cccc4c3ccn4S(=O)(=O)C3CCCC3)c1F)NC2(C)C` [Example 201, 8-[1-(Cyclopentylsulfonyl)-1H-indol-4-yl]-7,9-difluoro-1,4,4-trimethyl-5H-[1,2,4]triazolo[4,3-a]quinoxaline], which IC50 or EC50 (agonist or antagonist mode not specified) is on record?
Its IC50 or EC50 (agonist or antagonist mode not specified) is 1000 to 15000 nM.

How did the IC50 or EC50 (agonist or antagonist mode not specified) turn out when `Cc1c[nH]c2c(-c3c(F)cc4c(c3F)-n3c(Cc5ccccn5)nnc3C(C)(C)N4)cccc12` [Example 75, 7,9-Difluoro-4,4-dimethyl-8-(3-methyl-1H-indol-7-yl)-1-(pyridin-2-yl-methyl)-5H-[1,2,4]triazolo[4,3-a]quinoxaline] was run?
The IC50 or EC50 (agonist or antagonist mode not specified) was < 100 nM.

How did the IC50 or EC50 (agonist or antagonist mode not specified) turn out when `Cc1nnc2n1-c1c(ccc(-c3cc(F)cc4c3ccn4C)c1C(F)(F)F)NC2(C)C` [Example 522, 8-(6-Fluoro-1-methyl-1H-indol-4-yl)-1,4,4-trimethyl-9-(trifluoro-methyl)-5H-[1,2,4]triazolo[4,3-a] quinoxaline] was run?
The IC50 or EC50 (agonist or antagonist mode not specified) was 100 to 1000 nM.

Which IC50 or EC50 (agonist or antagonist mode not specified) does the source give for `CC#Cc1c[nH]c2c(-c3c(F)cc4c(c3C)-n3c(COC)nnc3C(C)(C)N4)cc(F)cc12` [Example 76, 7-fluoro-8-(5-fluoro-3-(prop-1-yn-1-yl)-1H-indol-7-yl)-1-(methoxymethyl)-4,4,9-trimethyl-4,5-dihydro-[1,2,4]triazolo[4,3-a]quinoxaline] here?
Its IC50 or EC50 (agonist or antagonist mode not specified) is < 100 nM.

With `Cc1c(-c2cccc3c(C4CCOC4)c[nH]c23)c(F)cc2c1-n1c(C)nnc1C(C)(C)N2` (centres unmarked) [Example 42, 7-fluoro-1,4,4,9-tetramethyl-8-(3-(tetrahydrofuran-3-yl)-1H-indol-7-yl)-4,5-dihydro-[1,2,4]triazolo[4,3-a]quinoxaline] as the molecule, how does the IC50 or EC50 (agonist or antagonist mode not specified) read?
Its IC50 or EC50 (agonist or antagonist mode not specified) is < 100 nM.

Which IC50 or EC50 (agonist or antagonist mode not specified) does the source give for `COc1cc(-c2c(F)cc3c(c2C(F)(F)F)-n2c(C)nnc2C(C)(C)N3)c2ccn(S(C)(=O)=O)c2c1` [Example 536, 7-Fluoro-8-(6-methoxy-1-methylsulfonyl-1H-indol-4-yl)-1,4,4-trimethyl-9-(trifluoro-methyl)-5H-[1,2,4]triazolo [4,3-a]quinoxaline] here?
Its IC50 or EC50 (agonist or antagonist mode not specified) is 100 to 1000 nM.

With `Cc1nnc2n1-c1c(cc(F)c(-c3cccc4c3cnn4S(C)(=O)=O)c1C(F)(F)F)NC2(C)C` [Example 446, 7-fluoro-1,4,4-trimethyl-8-(1-(methylsulfonyl)-1H-indazol-4-yl)-9-(trifluoromethyl)-4,5-dihydro-[1,2,4]triazolo[4,3-a]quinoxaline] as the molecule, how does the IC50 or EC50 (agonist or antagonist mode not specified) read?
Its IC50 or EC50 (agonist or antagonist mode not specified) is 100 to 1000 nM.

For `Cc1nnc2n1-c1c(cc(F)c(-c3cc(F)cc4[nH]ccc34)c1C(F)F)NC2(C)C` [Example 466, 9-(Difluoro-methyl)-7-fluoro-8-(6-fluoro-1H-indol-4-yl)-1,4,4-trimethyl-5H-[1,2,4]triazolo [4,3-a]quinoxaline], which IC50 or EC50 (agonist or antagonist mode not specified) is on record?
Its IC50 or EC50 (agonist or antagonist mode not specified) is < 100 nM.

`Cc1cc2c(c(F)c1-c1cccc3c1ccn3S(C)(=O)=O)-n1c(C)nnc1C(C)(C)N2` [Example 321, 9-Fluoro-1,4,4,7-tetramethyl-8-(1-methylsulfonyl-1H-indol-4-yl)-5H-[1,2,4]triazolo[4,3-a]quinoxaline] was tested. Which IC50 or EC50 (agonist or antagonist mode not specified) did it give?
Its IC50 or EC50 (agonist or antagonist mode not specified) is 1000 to 15000 nM.

For `CCS(=O)(=O)n1ccc2c(-c3c(OC)cc4c(c3C(F)(F)F)-n3c(C)nnc3C(C)(C)N4)cccc21` [Example 371, 8-[1-(Ethylsulfonyl)-1H-indol-4-yl]-7-methoxy-1,4,4-trimethyl-9-(trifluoromethyl)-5H-[1,2,4]triazolo[4,3-a]quinoxaline], which IC50 or EC50 (agonist or antagonist mode not specified) is on record?
Its IC50 or EC50 (agonist or antagonist mode not specified) is 100 to 1000 nM.
